# In paper PMC4684281, “Antitumor Effects and Mechanism of Novel Emodin Rhamnoside Derivatives against Human Cancer Cells In Vitro” (PLoS ONE, 2015):
# Key:
# HUVEC = experiment: MTT cell viability assay, HUVEC; assay type: cell-based; settings: Homo sapiens, MTT at 72h, n=3, mean±S.E.M, read-out: IC50 for EM-d-Rha, HUVEC
# Procedure: The viability of cancer cells was evaluated by MTT assay. Briefly, cells were inoculated in 96-well culture plates at the density of 1×10^4/well with complete medium containing 10% fetal calf serum in a final volume of 0.2 mL. Cells were incubated at 37°C for at least 24 hours to allow optimal attachment. When the cells reached 60% confluence, they were treated with Cisplatin, HCPT and emodin rhamnopyranosides derivatives in various concentrations, and incubated in a humidity-controlled 5%CO2 incubator at 37°C for 72 hours. Medium were exchanged once every 24 hours. Cell control group and blank group were set up in the same manner, with each group having six parallel wells. Cell survival was assessed by directly adding 22 μL of 5mg/mL MTT to 0.2 mL medium. After three hours, the formazan precipitate was dissolved in 200μL isopropanol per well, and completely mixed under room temperature. Afterwards, the optical density of each well was detected at 570 nm wavelength by iMark microplate reader (Bio-rad,USA). This experiment was repeated at least three times.
# [1] = system: HepG2 mitochondrial membrane potential (ΔΨm); experiment: Mitochondrial membrane potential (Rhodamine123, flow cytometry); assay type: cell-based, Human; settings: HepG2, 5.0μM
# Procedure: HepG2 cells were inoculated in 10cm diameter culture plates at a density of 5×10^5 cells, and allowed to attach at 37°C for 24 hours. Afterwards, cells were treated with 5.0μM EM-d-Rha for 0, 24h, 48h and 72h respectively. Cells were incubated in a humidified incubator supplied with 5% CO2 at 37°C for 72 hours. Medium were exchanged once every 24 hours. The harvested cells of each sample were suspended in 500μL PBS before adding 5 μL Rhodamine123. Then samples were incubated at 37°C in the dark for 15 min. Cells were again collected by centrifugation at 300×g for 5 minutes and the supernatant was discarded. The cell pellets were washed twice with 4°C PBS. Finally cells of all samples were resuspended in 500μL PBS. Before performing assay, adjusting excitation wavelength and emission wavelength to 480nm, 520nm respectively, the ΔΨm changes of HepG2 mitochondrial were measured with a flow cytometer (BD FACSCalibur, BD Biosciences, US). The experiment was repeated at least three times.
# [2] = system: Cyto C gene expression of HepG2 cells; experiment: RT-qPCR gene expression, Cytochrome C; assay type: cell-based, Human; settings: 48 hours, control 1.030±0.280
# Procedure: HepG2 cells were inoculated in 6-well culture plates at a density of 3×10^5 cells/well, and allowed to attach at 37°C for 24 hours. Then cells were treated with specific concentrations of EM-d-Rha and incubated in a humidified incubator supplied with 5% CO2 at 37°C for 48 hours. Medium were changed once every 24 hours. Afterwards, mRNA was extracted from every group using E.Z.N.A.^TM Total RNA Kit II according to the manufacturer’s instructions. The extracted mRNA was dissolved in 20 μL ddH2O (Qiagen) containing diethyl pyrocarbonate (DEPC). The concentration of mRNA was quantified with a NanoDrop ND-100 device (Thermo Fisher Scientific). cDNA was synthesized using 3μg of the extracted mRNA from each sample with PCR system (BIO-RAD,USA). The cDNA synthesis reaction was prepared according to the manufacturer’s instructions by mixing 3μg mRNA, 4.0μL 5× MMLV buffer, 3 μL oligodT18, 0.5μL 10 mM dNTP solution, 0.8μL RNase inhibitor, 3.7μL MMLV Rtase, and 6.0μL DEPC ddH2O in PCR tubes. The reaction condition was 5min at 70°C, 60 min at 42°C and 10min at 4°C. The products were used for subsequent RT-qPCR analysis. The level of mRNA expression was measured by RT-qPCR using a CFX96^TM C1000 Real-Time PCR System (BIO-RAD, USA).The primers were designed using idt.dna software system (http //www.idtdna.com). The specific primers were: Cyto C: 5′-[…]-3′ (forward), 5′- […] -3′ (reverse); Caspase 3: 5′- CCTACAGCCCATTTC TCCATAC-3′ (forward), 5′-[…]-′ (reverse); β-actin: 5′-[…]-3′ (forward), 5′-[…]-3′ (reverse). The product sizes of Cyto C, Caspase 3 and β-actin were 91bp, 125bp and 107bp, respectively. The PCR reaction was performed in a final volume of 20μL using an optical 96-well tray. The reaction mixture consisted of 10μL of SYBR I green Mix/ GoTaq®qPCR
# Master Mix (Promega), 0.3μL of each primer (10μM), and 1.0 μL cDNA template. PCR cycling condition was one cycle of 5min at 95°C, 39 cycles and each of which was consisted of 15 seconds at 95°C, 15 seconds at 62°C and 30 seconds at 72°C, with final extension at 60°C for 5 Seconds. The thermal melt parameter was investigated to assess the homogeneity of PCR. Each sample was analyzed in quadruplicate and mean was used for further analysis. The mRNA expression levels of each sample were quantified by measuring the threshold cycle (CT) values of genes. The relative values of the target gene expression were calculated according to CT values of the target genes and the reference gene (β-actin) by applying Livak and Schmittgen method. That is, it equals to 2^-Δ ΔCT, ΔCT equals the mean of Ct for target gene minus the mean of Ct for β-actin gene, and ΔΔCT equals ΔCT of the treated group minus ΔCT of the control group.
# [3] = system: Cyto C, caspase-3 and caspase-9 proteins in HepG2 cells; experiment: Western blot analysis of apoptotic proteins; assay type: cell-based, Human; settings: HepG2, compared to control group
# Procedure: HepG2 cells were inoculated, cultured and harvested as described previously. Afterwards, the experiment was performed on ice. The harvested cell pellet was washed with cold PBS before being resuspended in 300μL cytosol lysis buffer through vortex. Then cells of all samples were lysed by sonication method on the ice using the ultrasonic cell disruptor (100 W for 30s×4 times). Total protein of each sample was measured by Bradford assay using protein quantification reagents from Bio-Rad. All samples were added 2×loading buffer before analyzing on 12% gels by SDS-PAGE. Then the proteins were transferred to nitrocellulose membranes by electro-blotting. The membranes were blocked in 1% bovine serum albumin (BSA) or 5% milk solution at room temperature for 30min, followed by incubation with the primary antibody against rabbit (Univ-bio, China) at 4°C overnight. The membranes were then washed three times with 1×TBST, each time last for 5 mins. The membranes were then incubated with the secondary antibodies for 3 h at 4°C, followed by washing with 1×TBST as described previously. Finally, the immuno-reactive bands were detected and documented using an enhanced chemiluminescent Western blotting system (Thermo-scientific, USA) on a Versa Doc imaging system.
structure (smiles),measurement,setting,value
"CC(=O)O[C@@H]1[C@@H](O[C@@H]2O[C@@H](C)[C@H](O)[C@@H](OC(C)=O)[C@H]2OC(C)=O)[C@H](C)O[C@@H](Oc2cc(O)c3c(c2)C(=O)c2cc(C)cc(O)c2C3=O)[C@@H]1OC(C)=O [S-8, 3-(2”,3”-Di-O-acetyl-α-L-rhamnopyranosyl-(1→4)-2’,3’-di-O-acetyl-α-L-rhamnopyranosyl)-emodin]",IC50,HUVEC,18.7 ± 3.9 µM
same,Percentage of ΔΨm (Vs. control group),[1]; 24 h,82.22±5.97 %
same,Percentage of ΔΨm (Vs. control group),[1]; 48 h,53.21±9.71 %
same,Percentage of ΔΨm (Vs. control group),"[1]; 72 h, listed as EM-d-Rha",31.77±2.84%
same,Cytochrome C mRNA expression level relative to controls,"[2]; HepG2, 0.70μM",1.009±0.475 fold
same,Cytochrome C mRNA expression level relative to controls,"[2]; HepG2, 1.40μM",1.086±0.727 fold
same,Cytochrome C mRNA expression level relative to controls,"[2]; HepG2, 2.80μM, listed as EM-d-Rha",3.258±2.402 fold
same,Cytochrome C mRNA expression level relative to controls,"[2]; HepG2, 5.60μM",5.625±4.950 fold
same,"Expression levels of Cyto C, caspase-3 and caspase-9 proteins (western-blot)",[3],three proteins expression increased at a concentration-dependent manner
